Here are results for eight molecules from patent publication US20240158446A1, “CYCLIC COMPOUND HAVING SELECTIVE INHIBITORY ACTION ON KRAS OVER HRAS AND NRAS” (CHUGAI SEIYAKU KABUSHIKI KAISHA, priority 2021, published 2024).

Molecules are shown by their SMILES. Where a SMILES comes first, the peptide text is derived from it. Bridges are numbered along the chain shown (N, C = ends). [ ]: non-standard residue; d: D form. The star is where a group is joined. hPhe(3-Cl-4-CF3) = N[C@@H](CCc1ccc(C(F)(F)F)c(Cl)c1)C(=O)O; NPrPhe(4-CF3) = CCCN[C@@H](Cc1ccc(C(F)(F)F)cc1)C(=O)O; NMeAbu(4,4,4-F3) = CN[C@@H](CC(F)(F)F)C(=O)O; NMeGly(cPent) = CN[C@H](C(=O)O)C1CCCC1; Pro(4,4-F2) = O=C(O)[C@@H]1CC(F)(F)CN1; NMeGly(cBu) = CN[C@H](C(=O)O)C1CCC1; NMeD = CN[C@@H](CC(=O)O)C(=O)O; NMeL = CN[C@@H](CC(C)C)C(=O)O; NMeNva = CCC[C@H](NC)C(=O)O; NMeAbu = CC[C@H](NC)C(=O)O; Morpholide = C1CN(*)CCO1; NMeA = CN[C@@H](C)C(=O)O; Ac5c = NC1(C(=O)O)CCCC1; Aze = O=C(O)[C@@H]1CCN1; Ac4c = NC1(C(=O)O)CCC1; Sar = CNCC(=O)O

For test [1], the target named is GDP-bound HRAS wild-type protein (Homo sapiens, UniProt P01112). Description: Binding to HRAS by surface plasmon resonance (SPR), Single Cycle Kinetics. Particulars: SPR, GDP-bound HRAS wild-type protein vs GDP-bound KRAS wild-type protein.
Chain of GDP-bound HRAS wild-type protein (P01112 whole entry): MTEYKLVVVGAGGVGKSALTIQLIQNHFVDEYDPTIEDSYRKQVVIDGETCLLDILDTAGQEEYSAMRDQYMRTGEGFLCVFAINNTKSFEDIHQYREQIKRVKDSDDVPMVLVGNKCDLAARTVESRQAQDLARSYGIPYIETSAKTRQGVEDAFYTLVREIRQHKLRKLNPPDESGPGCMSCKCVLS
In test [2] the target is GDP-bound NRAS wild-type protein (Homo sapiens, UniProt P01111). Description: Binding to NRAS by surface plasmon resonance (SPR), Single Cycle Kinetics. Particulars: SPR, GDP-bound NRAS wild-type protein vs GDP-bound KRAS wild-type protein.
Chain of GDP-bound NRAS wild-type protein (P01111 whole entry): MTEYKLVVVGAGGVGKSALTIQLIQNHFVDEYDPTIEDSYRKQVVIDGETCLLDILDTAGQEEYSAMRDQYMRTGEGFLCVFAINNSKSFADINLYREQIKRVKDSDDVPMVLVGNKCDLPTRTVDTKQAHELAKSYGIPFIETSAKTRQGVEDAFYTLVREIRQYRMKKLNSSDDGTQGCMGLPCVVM
Test [3] concerns the target GDP-bound KRAS wild-type protein (Homo sapiens, UniProt P01116). In words: Binding to KRAS by surface plasmon resonance (SPR), Single Cycle Kinetics. Particulars: SPR Single Cycle Kinetics, GDP-bound KRAS wild-type protein, 1:1 binding model; read-out: KRAS KD. A general note: SPR reads the build-up and loss of mass on a sensor chip optically.

Chain of GDP-bound KRAS wild-type protein (P01116 whole entry): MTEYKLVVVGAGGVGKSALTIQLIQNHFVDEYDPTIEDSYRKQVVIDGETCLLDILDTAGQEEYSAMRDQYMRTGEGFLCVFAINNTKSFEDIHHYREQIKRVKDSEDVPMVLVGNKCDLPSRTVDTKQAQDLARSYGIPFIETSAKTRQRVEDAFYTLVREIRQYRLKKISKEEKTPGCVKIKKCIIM

As for `CCCN1C(=O)CN(C)C(=O)CN(C)C(=O)[C@H]([C@@H](C)CC)NC(=O)[C@H](C2CCC2)N(C)C(=O)C[C@@H](C(=O)N2CCOCC2)N(C)C(=O)[C@H](C2CCCC2)N(C)C(=O)C2(CCCC2)NC(=O)[C@@H]2CC(F)(F)CN2C(=O)[C@H](CCc2ccc(C(F)(F)F)c(Cl)c2)NC(=O)CN(C)C(=O)[C@@H]1Cc1ccc(C(F)(F)F)cc1` [PP0200] ([NMeGly(cBu)]I[Sar][Sar][NPrPhe(4-CF3)][Sar][hPhe(3-Cl-4-CF3)][Pro(4,4-F2)][Ac5c][NMeGly(cPent)][NMeD]-Morpholide; lactam N-11), the “HRAS/KRAS (ratio of KD value for HRAS to KD value for KRAS)” value in test [1] is “C (A compound having a KD ratio of 0.1 or more and less than 3 is denoted as C)”. The “NRAS/KRAS (ratio of KD value for NRAS to KD value for KRAS)” value in test [2] was “C (A compound having a KD ratio of 0.1 or more and less than 3 is denoted as C)”. Besides, the Kd (in general, the constant that tells how readily two partners part at equilibrium) in test [3] came out at 0.22 nM.
In the case of `CCC[C@H]1C(=O)N[C@@H]([C@@H](C)CC)C(=O)N(C)CC(=O)N(C)CC(=O)N(CCC)[C@@H](Cc2ccc(C(F)(F)F)cc2)C(=O)N(C)CC(=O)N[C@@H](CCc2ccc(C(F)(F)F)c(Cl)c2)C(=O)N2CC(F)(F)C[C@H]2C(=O)NC2(CCCC2)C(=O)N(C)[C@@H](C2CCCC2)C(=O)N(C)[C@H](C(=O)N2CCOCC2)CC(=O)N1C` [PP0201] ([NMeNva]I[Sar][Sar][NPrPhe(4-CF3)][Sar][hPhe(3-Cl-4-CF3)][Pro(4,4-F2)][Ac5c][NMeGly(cPent)][NMeD]-Morpholide; lactam N-11), the “HRAS/KRAS (ratio of KD value for HRAS to KD value for KRAS)” value in test [1] was “C (A compound having a KD ratio of 0.1 or more and less than 3 is denoted as C)”. The “NRAS/KRAS (ratio of KD value for NRAS to KD value for KRAS)” value in test [2] is “B (a compound having 3 or more and less than 10 is denoted as B)”. The Kd in test [3] is 0.06 nM.
In the case of `CCCN1C(=O)CN(C)C(=O)CN(C)C(=O)[C@H]([C@@H](C)CC)NC(=O)[C@H](CC)N(C)C(=O)C[C@@H](C(=O)N2CCOCC2)N(C)C(=O)[C@H](C2CCCC2)N(C)C(=O)C2(CCCC2)NC(=O)[C@@H]2CC(F)(F)CN2C(=O)[C@H](CCc2ccc(C(F)(F)F)c(Cl)c2)NC(=O)CN(C)C(=O)[C@@H]1Cc1ccc(C(F)(F)F)cc1` [PP0202] ([NMeAbu]I[Sar][Sar][NPrPhe(4-CF3)][Sar][hPhe(3-Cl-4-CF3)][Pro(4,4-F2)][Ac5c][NMeGly(cPent)][NMeD]-Morpholide; lactam N-11), in test [1], the “HRAS/KRAS (ratio of KD value for HRAS to KD value for KRAS)” value is “C (A compound having a KD ratio of 0.1 or more and less than 3 is denoted as C)”. The “NRAS/KRAS (ratio of KD value for NRAS to KD value for KRAS)” value in test [2] is “B (a compound having 3 or more and less than 10 is denoted as B)”. Moreover, in test [3], the Kd was found to be 0.076 nM.
Take `CCCN1C(=O)[C@@H]2CCN2C(=O)[C@H](C)N(C)C(=O)[C@H]([C@@H](C)CC)NC(=O)[C@H](CC(F)(F)F)N(C)C(=O)C[C@@H](C(=O)N2CCOCC2)N(C)C(=O)[C@H](C2CCCC2)N(C)C(=O)C2(CCCC2)NC(=O)[C@@H]2CC(F)(F)CN2C(=O)[C@H](CCc2ccc(C(F)(F)F)c(Cl)c2)NC(=O)CN(C)C(=O)[C@@H]1Cc1ccc(C(F)(F)F)cc1` [PP0203] ([NMeAbu(4,4,4-F3)]I[NMeA][Aze][NPrPhe(4-CF3)][Sar][hPhe(3-Cl-4-CF3)][Pro(4,4-F2)][Ac5c][NMeGly(cPent)][NMeD]-Morpholide; lactam N-11): in test [1], the “HRAS/KRAS (ratio of KD value for HRAS to KD value for KRAS)” value was “C (A compound having a KD ratio of 0.1 or more and less than 3 is denoted as C)”. Moreover, in test [2], the “NRAS/KRAS (ratio of KD value for NRAS to KD value for KRAS)” value is “C (A compound having a KD ratio of 0.1 or more and less than 3 is denoted as C)”. For the same molecule, the Kd in test [3] turned out to be 0.094 nM.
For `CCCN1C(=O)[C@@H]2CCN2C(=O)[C@H](C)N(C)C(=O)[C@H]([C@@H](C)CC)NC(=O)[C@H](C2CCC2)N(C)C(=O)C[C@@H](C(=O)N2CCOCC2)N(C)C(=O)[C@H](C2CCCC2)N(C)C(=O)C2(CCCC2)NC(=O)[C@@H]2CC(F)(F)CN2C(=O)[C@H](CCc2ccc(C(F)(F)F)c(Cl)c2)NC(=O)CN(C)C(=O)[C@@H]1Cc1ccc(C(F)(F)F)cc1` [PP0204] ([NMeGly(cBu)]I[NMeA][Aze][NPrPhe(4-CF3)][Sar][hPhe(3-Cl-4-CF3)][Pro(4,4-F2)][Ac5c][NMeGly(cPent)][NMeD]-Morpholide; lactam N-11), the “HRAS/KRAS (ratio of KD value for HRAS to KD value for KRAS)” value in test [1] is “C (A compound having a KD ratio of 0.1 or more and less than 3 is denoted as C)”. The “NRAS/KRAS (ratio of KD value for NRAS to KD value for KRAS)” value in test [2] was “C (A compound having a KD ratio of 0.1 or more and less than 3 is denoted as C)”. Also, in test [3], the Kd turned out to be 0.21 nM.
Regarding `CCC[C@H]1C(=O)N[C@@H]([C@@H](C)CC)C(=O)N(C)[C@@H](C)C(=O)N2CC[C@H]2C(=O)N(CCC)[C@@H](Cc2ccc(C(F)(F)F)cc2)C(=O)N(C)CC(=O)N[C@@H](CCc2ccc(C(F)(F)F)c(Cl)c2)C(=O)N2CC(F)(F)C[C@H]2C(=O)NC2(CCCC2)C(=O)N(C)[C@@H](C2CCCC2)C(=O)N(C)[C@H](C(=O)N2CCOCC2)CC(=O)N1C` [PP0205] ([NMeNva]I[NMeA][Aze][NPrPhe(4-CF3)][Sar][hPhe(3-Cl-4-CF3)][Pro(4,4-F2)][Ac5c][NMeGly(cPent)][NMeD]-Morpholide; lactam N-11), in test [1], the “HRAS/KRAS (ratio of KD value for HRAS to KD value for KRAS)” value is “C (A compound having a KD ratio of 0.1 or more and less than 3 is denoted as C)”. Also, in test [2], the “NRAS/KRAS (ratio of KD value for NRAS to KD value for KRAS)” value is “C (A compound having a KD ratio of 0.1 or more and less than 3 is denoted as C)”. In test [3], the Kd was found to be 0.11 nM.
`CCCN1C(=O)[C@@H]2CCN2C(=O)[C@H](C)N(C)C(=O)[C@H]([C@@H](C)CC)NC(=O)[C@H](CC)N(C)C(=O)C[C@@H](C(=O)N2CCOCC2)N(C)C(=O)[C@H](C2CCCC2)N(C)C(=O)C2(CCCC2)NC(=O)[C@@H]2CC(F)(F)CN2C(=O)[C@H](CCc2ccc(C(F)(F)F)c(Cl)c2)NC(=O)CN(C)C(=O)[C@@H]1Cc1ccc(C(F)(F)F)cc1` [PP0206] ([NMeAbu]I[NMeA][Aze][NPrPhe(4-CF3)][Sar][hPhe(3-Cl-4-CF3)][Pro(4,4-F2)][Ac5c][NMeGly(cPent)][NMeD]-Morpholide; lactam N-11): the “HRAS/KRAS (ratio of KD value for HRAS to KD value for KRAS)” value in test [1] is “B (a compound having 3 or more and less than 10 is denoted as B)”. Moreover, in test [2], the “NRAS/KRAS (ratio of KD value for NRAS to KD value for KRAS)” value was “C (A compound having a KD ratio of 0.1 or more and less than 3 is denoted as C)”. The Kd in test [3] was 0.071 nM.
For the molecule `CCCN1C(=O)CN(C)C(=O)CN(C)C(=O)[C@H]([C@@H](C)CC)NC(=O)[C@H](CC(C)C)N(C)C(=O)C[C@@H](C(=O)N2CCOCC2)N(C)C(=O)[C@H](C2CCCC2)N(C)C(=O)C2(CCC2)NC(=O)[C@@H]2CC(F)(F)CN2C(=O)[C@H](CCc2ccc(C(F)(F)F)c(Cl)c2)NC(=O)CN(C)C(=O)[C@@H]1Cc1ccc(C(F)(F)F)cc1` [PP0207] ([NMeL]I[Sar][Sar][NPrPhe(4-CF3)][Sar][hPhe(3-Cl-4-CF3)][Pro(4,4-F2)][Ac4c][NMeGly(cPent)][NMeD]-Morpholide; lactam N-11), the “HRAS/KRAS (ratio of KD value for HRAS to KD value for KRAS)” value in test [1] is “C (A compound having a KD ratio of 0.1 or more and less than 3 is denoted as C)”. For the same molecule, in test [2], the “NRAS/KRAS (ratio of KD value for NRAS to KD value for KRAS)” value is “B (a compound having 3 or more and less than 10 is denoted as B)”. Further, the Kd in test [3] was found to be 0.066 nM.
